# Measured values as given in US10246422B2, “Heterocyclic compounds and use thereof in medicine and in cosmetics” (GALDERMA RESEARCH & DEVELOPMENT, priority 2014, dated 2019).
# Test: Metabolic stability in the presence of human hepatic microsomes
# Type: in vitro ADME
# Settings: compound 1 μM (DMSO 0.1%), microsomal protein 0.5 mg/mL, LC/MS/MS
# Method: This is illustrated more particularly by the test of metabolic stability in the presence of human hepatic microsomes presented below.
# Human hepatic microsomes (Becton Dickinson) are incubated at a protein concentration of 0.5 mg/mL in the reaction mixture.
# The reaction mixture of the microsomes consists of phosphate buffer pH: 7.4 at 100 mM, MgCl2 at 100 mM (50/50), a system for generating […] consisting of a mixture of nicotinamide adenine […] (NADP), glucose-6-phosphate (G6P) at 1 mg/mL and glucose-6-phosphate dehydrogenase (G6PDH) at 4 U/mL. The compounds are tested at 1 μM (DMSO 0.1%).
# The samples are taken from the incubation medium after adding the microsomes, at time 15 minutes. The metabolic reaction is stopped by adding methanol (1 volume incubation medium/3 volumes of methanol). The percentage of the parent product remaining after 15 minutes is measured by LC/MS/MS analysis.
row,Structure (SMILES),% of product remaining at 15 min (human hepatic microsomes)
1,"COc1ccc2c(c1)CCN(C1CCN(C(=O)Cn3cc(-c4cccc(F)c4Cl)c(=O)n([C@@H](C)CNC(C)=O)c3=O)CC1)C(=O)N2 [Compound 115, N—[(S)-2-(5-(2-chloro-3-fluorophenyl)-3-{2-[4-(7-methoxy-2-oxo-1,2,4,5-tetrahydro-benzo[d][1,3]diazepin-3-yl)-piperidin-1-yl]-2-oxo-ethyl}-2,6-dioxo-3,6-dihydro-2H-pyrimidin-1-yl)-propyl]acetamide]",0%
2,"COc1ccc2c(c1)CCN(C1CCN(C(=O)Cn3cc(-c4cccc(F)c4Cl)c(=O)n([C@@H](C)CS(C)(=O)=O)c3=O)CC1)C(=O)N2 [Compound 142, 5-(2-chloro-3-fluorophenyl)-3-((S)-2-methanesulphonyl-1-methylethyl)-1-{2-[4-(7-methoxy-2-oxo-1,2,4,5-tetrahydro-benzo[d][1,3]diazepin-3-yl)-piperidin-1-yl]-2-oxo-ethyl}-1H-pyrimidine-2,4-dione]",65%
3,"CC(C)n1c(=O)c(-c2cccc(F)c2Cl)cn(CC(=O)N2CCC(N3CCc4ccccc4NC3=O)CC2)c1=O [Compound 63, 5-(2-chloro-3-fluorophenyl)-3-isopropyl-1-{2-oxo-2-[4-(2-oxo-1,2,4,5-tetrahydro-benzo[d][1,3]diazepin-3-yl)-piperidin-1-yl]-ethyl}-1H-pyrimidine-2,4-dione]",45%
4,"COc1ccc2c(c1)CCN(C1CCN(C(=O)Cn3cc(-c4cccc(F)c4Cl)c(=O)n(CCn4cnnc4)c3=O)CC1)C(=O)N2 [Compound 251, 5-(2-chloro-3-fluorophenyl)-1-[2-[4-(7-methoxy-2-oxo-4,5-dihydro-1H-1,3-benzodiazepin-3-yl)-1-piperidyl]-2-oxo-ethyl]-3-[2-(1,2,4-triazol-4-yl)ethyl]pyrimidine-2,4-dione]",4%
5,COC[C@H](C)n1c(=O)c(-c2cccc(F)c2Cl)cn(CC(=O)Nc2ccc3c(c2)C[C@@]2(C3)C(=O)Nc3ncccc32)c1=O [Compound 165],0%
6,"COc1cccc(C2=CN(CC(=O)N3CCC(N4CCc5ccccc5NC4=O)CC3)C(=O)N(C(C)C)C2)c1Cl [Compound 193, 3-(1-{2-[5-(2-chloro-3-methoxyphenyl)-3-isopropyl-2-oxo-3,4-dihydro-2H-pyrimidin-1-yl]-acetyl}-piperidin-4-yl)-1,3,4,5-tetrahydro-benzo[d][1,3]diazepin-2-one]",18%
7,"COc1c(C)cccc1-c1cn(CC(=O)N2CCC(N3CCc4ccccc4NC3=O)CC2)c(=O)n(C)c1=O [Compound 25, 5-(2-methoxy-3-methylphenyl)-3-methyl-1-{2-oxo-2-[4-(2-oxo-1,2,4,5-tetrahydro-benzo[d][1,3]diazepin-3-yl)-piperidin-1-yl]-ethyl}-1H-pyrimidine-2,4-dione]",8%
8,"COCC(COC)n1c(=O)c(-c2cccc(F)c2Cl)cn(CC(=O)N2CCC(N3CCc4cc(OC)ccc4NC3=O)CC2)c1=O [Compound 232, 5-(2-chloro-3-fluorophenyl)-3-[2-methoxy-1-(methoxymethyl)ethyl]-1-[2-[4-(7-methoxy-2-oxo-4,5-dihydro-1H-1,3-benzodiazepin-3-yl)-1-piperidyl]-2-oxo-ethyl]pyrimidine-2,4-dione]",1%
9,"NCCCC[C@H](NC(=O)[C@@H](Cc1cc(Br)c(O)c(Br)c1)NC(=O)N1CCC(N2Cc3ccccc3NC2=O)CC1)C(=O)N1CCN(c2ccncc2)CC1 [Olcegepant, olcegepant, reference compound]",100%
10,"COc1ccc2c(c1)CCN(C1CCN(C(=O)Cn3cc(-c4cccc(OC)c4Cl)c(=O)n([C@@H](C)CNC(C)=O)c3=O)CC1)C(=O)N2 [Compound 206, N—[(S)-2-(5-(2-chloro-3-methoxyphenyl)-3-{2-[4-(7-methoxy-2-oxo-1,2,4,5-tetrahydro-benzo[d][1,3]diazepin-3-yl)-piperidin-1-yl]-2-oxo-ethyl}-2,6-dioxo-3,6-dihydro-2H-pyrimidin-1-yl)-propyl]acetamide]",1%
11,"O=C(CN1C(=O)C2(CCCC2)NC[C@H]1c1cc(F)cc(F)c1)Nc1ccc2c(c1)C[C@@]1(C2)C(=O)Nc2ncccc21 [MK-3207, reference compound]",100%
12,"O=C(N[C@@H]1CC[C@@H](c2cccc(F)c2F)CN(CC(F)(F)F)C1=O)N1CCC(n2c(=O)[nH]c3ncccc32)CC1 [Telcagepant, telcagepant, reference compound]",100%
13,"COc1ccc2c(c1)CCN(C1CCN(C(=O)Cn3cc(-c4cccc(F)c4Cl)c(=O)n([C@H](C)CS(C)(=O)=O)c3=O)CC1)C(=O)N2 [Compound 143, 5-(2-chloro-3-fluorophenyl)-3-((R)-2-methanesulphonyl-1-methylethyl)-1-{2-[4-(7-methoxy-2-oxo-1,2,4,5-tetrahydro-benzo[d][1,3]diazepin-3-yl)-piperidin-1-yl]-2-oxo-ethyl}-1H-pyrimidine-2,4-dione]",42%
14,"COC[C@@H](C)n1c(=O)c(-c2cccc(F)c2Cl)cn(CC(=O)N2CCC(N3CCc4ccccc4NC3=O)CC2)c1=O [Compound 110, 5-(2-chloro-3-fluorophenyl)-3-((R)-2-methoxy-1-methylethyl)-1-{2-oxo-2-[4-(2-oxo-1,2,4,5-tetrahydro-benzo[d][1,3]diazepin-3-yl)-piperidin-1-yl]-ethyl}-1H-pyrimidine-2,4-dione]",1%
15,"COc1ccc2c(c1)CCN(C1CCN(C(=O)Cn3cc(-c4cccc(F)c4Cl)c(=O)n(CC(C)(C)OC)c3=O)CC1)C(=O)N2 [Compound 240, 5-(2-chloro-3-fluorophenyl)-3-(2-methoxy-2-methylpropyl)-1-[2-[4-(7-methoxy-2-oxo-4,5-dihydro-1H-1,3-benzodiazepin-3-yl)-1-piperidyl]-2-oxo-ethyl]pyrimidine-2,4-dione]",0%
16,"COc1ccc2c(c1)CCN(C1CCN(C(=O)Cn3cc(-c4cccc(OC)c4F)c(=O)n(C(C)C)c3=O)CC1)C(=O)N2 [Compound 149, 5-(2-fluoro-3-methoxyphenyl)-3-isopropyl-1-{2-[4-(7-methoxy-2-oxo-1,2,4,5-tetrahydro-benzo[d][1,3]diazepin-3-yl)-piperidin-1-yl]-2-oxo-ethyl}-1H-pyrimidine-2,4-dione]",26%
17,"CCC(=O)NC[C@H](C)n1c(=O)c(-c2cccc(F)c2Cl)cn(CC(=O)N2CCC(N3CCc4cc(OC)ccc4NC3=O)CC2)c1=O [Compound 158, N—[(S)-2-(5-(2-chloro-3-fluorophenyl)-3-{2-[4-(7-methoxy-2-oxo-1,2,4,5-tetrahydro-benzo[d][1,3]diazepin-3-yl)-piperidin-1-yl]-2-oxo-ethyl}-2,6-dioxo-3,6-dihydro-2H-pyrimidin-1-yl)-propyl]-propionamide]",0%
18,"CSCCn1c(=O)c(-c2cccc(F)c2Cl)cn(CC(=O)N2CCC(N3CCc4ccccc4NC3=O)CC2)c1=O [Compound 112, 5-(2-chloro-3-fluorophenyl)-3-(2-methylsulphanyl-ethyl)-1-{2-oxo-2-[4-(2-oxo-1,2,4,5-tetrahydro-benzo[d][1,3]diazepin-3-yl)-piperidin-1-yl]-ethyl}-1H-pyrimidine-2,4-dione]",0%
19,"COc1ccc2c(c1)CCN(C1CCN(C(=O)Cn3cc(-c4ccccc4OC(F)(F)F)c(=O)n(C(C)C)c3=O)CC1)C(=O)N2 [Compound 150, 3-isopropyl-1-{2-[4-(7-methoxy-2-oxo-1,2,4,5-tetrahydro-benzo[d][1,3]diazepin-3-yl)-piperidin-1-yl]-2-oxo-ethyl}-5-(2-trifluoromethoxyphenyl)-1H-pyrimidine-2,4-dione]",0%
20,"COc1ccc2c(c1)CCN(C1CCN(C(=O)Cn3cc(-c4cccc(F)c4Cl)c(=O)n([C@@H](C)CNS(C)(=O)=O)c3=O)CC1)C(=O)N2 [Compound 120, N—[(S)-2-(5-(2-chloro-3-fluorophenyl)-3-{2-[4-(7-methoxy-2-oxo-1,2,4,5-tetrahydro-benzo[d][1,3]diazepin-3-yl)-piperidin-1-yl]-2-oxo-ethyl}-2,6-dioxo-3,6-dihydro-2H-pyrimidin-1-yl)-propyl]-methanesulphonamide]",1%
21,"Cc1cccc(-c2cn(CC(=O)N3CCC(N4CCc5ccccc5NC4=O)CC3)c(=O)n(C)c2=O)c1C [Compound 30, 5-(2,3-dimethylphenyl)-3-methyl-1-{2-oxo-2-[4-(2-oxo-1,2,4,5-tetrahydro-benzo[d][1,3]diazepin-3-yl)-piperidin-1-yl]-ethyl}-1H-pyrimidine-2,4-dione]",16%
22,"COC(=O)CCn1c(=O)c(-c2cccc(F)c2Cl)cn(CC(=O)N2CCC(N3CCc4ccccc4NC3=O)CC2)c1=O [Compound 114, 3-(5-(2-chloro-3-fluorophenyl)-2,6-dioxo-3-{2-oxo-2-[4-(2-oxo-1,2,4,5-tetrahydro-benzo[d][1,3]diazepin-3-yl)-piperidin-1-yl]-ethyl}-3,6-dihydro-2H-pyrimidin-1-yl)-methyl propionate]",41%
23,"CC[C@H](C)n1c(=O)c(-c2cccc(F)c2Cl)cn(CC(=O)N2CCC(N3CCc4cc(OC)ccc4NC3=O)CC2)c1=O [Compound 237, 5-(2-chloro-3-fluorophenyl)-1-[2-[4-(7-methoxy-2-oxo-4,5-dihydro-1H-1,3-benzodiazepin-3-yl)-1-piperidyl]-2-oxo-ethyl]-3-[(1S)-1-methylpropyl]pyrimidine-2,4-dione]",3%
